Assay results: patent publication US20080227813A1, “Pharmaceutical compositions and methods for treating diseases associated with neurodegeneration” (priority 2006, published 2008)

Experiments:
[1] = 28-day repeated dose oral toxicokinetic study in rats; conditions: for Tmax: rat, in vivo, po
Description: A 28-day repeated dose oral toxicokinetic study of Compound I was performed in rats involving dose groups of 375 mg/kg, 750 mg/kg and 1500 mg/kg/day (equal to 233 mg/kg, 465 mg/kg and 930 mg/kg free base) (n=5 animals/sex/group). Blood samples were taken after the first and after the last doses to determine the kinetic parameters.

rats = assay: 180-day repeated dose oral toxicity study in rats
Description: A six-month repeated dose oral toxicity study of Compound I was performed in rats involving a control (physiologic saline, n=32/sex) and dose groups of 200 mg/kg/day, 400 mg/kg/day and 900 mg/kg/day (equal to 124 mg/kg, 248 mg/kg and 558 mg/kg free base, n=20/sex, 20/sex and 32/sex, respectively). The test item was dissolved in distilled water. Treatment was carried out by a stomach tube daily. The application volume was adjusted weekly according to the animal's body weight changes.
Clinical observations were made once daily. Body weight and food consumption were measured and evaluated weekly. Urine collection, blood sampling for hematological, clinical chemistry evaluation and gross necropsy were conducted at the end of the treatment period. Full histopathologic examination was performed on the preserved organs and tissues of the vehicle control and high dose groups. In addition, the liver, kidneys, testes, epididymis and organs showing macroscopic alterations were examined microscopically in the low and medium doses.
Compound I content (pre-dose concentration) was determined in serum on days 1, 49, 111 and 173. The serum samples were analyzed by liquid/liquid extraction, and ion-pair HPLC. Twelve animals per sex of the controls and high dose groups were kept alive for a 28-day post-treatment recovery period. They were processed in the same way as animals at the termination of treatment.

[2] = Double-blind multiple oral dose pharmacokinetics in male healthy volunteers
Description: The study was designed to compare the pharmacokinetic profile of Compound I from the following dose regimens: • A: Administration of 1 capsule containing 50 mg of Compound I or of 1 capsule of placebo, three times a day, total dose 150 mg. • B: Administration of 1 capsule containing 100 mg of Compound I or of 1 capsule of placebo, three times a day, total dose 300 mg.
The treatments were applied in parallel groups. […] The study was conducted according to the study protocol and in accordance with GCP.

patients with ALS [3] = conditions: high dose
Description: A clinical trial was conducted to assess the safety and tolerability of Compound I, at three dosages (75, 150, and 300 mg/day) as compared with placebo over 12 weeks of treatment in 80 patients with ALS. It was also conducted to determine the pharmacokinetic characterization of Compound I in serum, as well as cerebrospinal fluid (CSF) penetration, in a subset of the 80 patients participating in the study. This information was correlated with safety measures.
Methodology: This study was a multicenter, double-blind, placebo-controlled study of outpatients with ALS. Eighty subjects at 8-10 centers were enrolled. Subjects received placebo, 25 mg tid, 50 mg tid or 100 mg tid Compound I daily. All 80 subjects received treatment to determine safety and tolerability after 12 weeks of daily treatment. Follow-up visits occurred at 2, 4, 6, 8, 10, 12, and 16 weeks. A subset of participants were admitted to the General Clinical Research Center (GCRC), clinical research center or other department for serum pharmacokinetic studies at Baseline and Week 4, with additional trough serum sampling at Weeks 2, 8, and 12. Cerebrospinal fluid (CSF) penetration was only be evaluated at Week 4.

[4] = dog, in vivo
patients with ALS [5] = tested on: patients with ALS
Description: An open label extension study was conducted in patients from Example 23 who completed 12 weeks of treatment and a Week 16 Follow-up Visit. Subjects received 100 mg tid Compound I daily for approximately six months. Visits occurred at Screening, Baseline, and once a month for six months (total of 8 visits). A telephone call at Month 7 ended subject participation in the study.
Disease Progression: There are four main indicators of disease progression that can be measured accurately in these time frames; ALSFRS-R, % VC, weight, and body mass index. The analysis assumed that any subject who dropped out (or died) had the worst possible outcome, based on an analysis by Finkelstein and Schoenfeld (Stat. Med. 1999 18:1341-54). This non-parametric analysis orders outcomes so that subjects who dropped out (or died) were considered to have a worse outcome than subjects who lived. For comparison these characteristics for the placebo group in the Celebrex® trial are included.

[6] = tested on: healthy young male subjects; assay: Multiple dose safety study in male healthy volunteers; conditions: human, 50 or 100 mg tid, 10 days
Description: The study was designed as a randomized, double-blind and single-center study, without therapeutic benefit for the subjects.
The study was performed in 18 healthy subjects divided into 2 groups of 9 subjects (groups A and B). Subjects of group A received 50 mg Compound I as a single dose on the morning of day 1; then 50 mg Compound I tid on days 2 to 9; and a single 50 mg dose on the morning of day 10.

[7] = 69 assigned to treatment, 100 mg tid, 6 months
[8] = number of patients, open-label 100 mg tid
[9] = vs placebo cohort of the Celebrex® study (historical control)

[O-][n+]1cccc(/C(Cl)=N/OC[C@H](O)CN2CCCCC2)c1 [Compound I, N-[2-hydroxy-3-(1-piperidinyl)-propoxy]-pyridine-1-oxide-3-carboximidoyl chloride]
Cmax ([1]; male rats, 750 mg/kg/day oral, Day 28): 20410 ng/mL | Tmax ([1]; 375 mg/kg): 1 h | Tmax ([1]; 375 mg/kg/day): 0.5 h | Tmax ([1]; 750 mg/kg): 2 h | Tmax ([1]; 1500 mg/kg): 2 h | mortality (rats; rat, 200, 400, 900 mg/kg/day oral, six months): No test item related mortality occurred | NOEL (rats; rat, both sexes, six-month oral): 200 mg/kg/day | accumulation in serum (rats; rat, in vivo, po): No accumulation | dose-adjusted AUC0-8 h ratio (2×50 mg dosing level/100 mg dosing level) ([2]; Day 1): 0.95 | dose-adjusted Cmax ratio (2×50 mg dosing level/100 mg dosing level) ([2]; Day 1): 0.94 | dose-adjusted AUC0-8 h ratio (2×50 mg dosing level/100 mg dosing level) ([2]; Day 10): 1.02 | dose-adjusted Cmax ratio (2×50 mg dosing level/100 mg dosing level) ([2]; Day 10): 0.88 | Racc accumulation ratio = AUC0-8 Day 10/AUC0-8 Day 1, GeoM ([2]; Treatment A, 50 mg tid): 1.512 | Racc accumulation ratio = AUC0-8 Day 10/AUC0-8 Day 1, MEAN ([2]; Treatment A, 50 mg tid): 1.525 | Racc accumulation ratio = AUC0-8 Day 10/AUC0-8 Day 1, MEAN ([2]; Treatment B, 100 mg tid): 1.426 | Racc accumulation ratio = AUC0-8 Day 10/AUC0-8 Day 1, GeoM ([2]; continuation of Treatment B (100 mg tid) under a head printed as Treatment A): 1.415 | AUC0-inf, GeoM ([2]; human, in vivo, 50 mg): 680 ng·h/mL | AUC0-inf, MEAN ([2]; human, in vivo, 50 mg): 691 ng·h/mL | AUC0-tz, GeoM ([2]; human, in vivo, 50 mg): 621 ng·h/mL | AUC0-tz, MEAN ([2]; human, in vivo, 50 mg): 632 ng·h/mL | LinPK = AUC0-8 Day 10/AUC0-inf, GeoM ([2]; human, in vivo, 50 mg): 1.148 | LinPK = AUC0-8 Day 10/AUC0-inf, MEAN ([2]; human, in vivo, 50 mg): 1.166 | AUC0-8, MEAN ([2]; human, in vivo, 100 mg): 1101 ng·h/mL | AUC0-inf, GeoM ([2]; human, in vivo, 100 mg): 1303 ng·h/mL | AUC0-inf, MEAN ([2]; human, in vivo, 100 mg): 1344 ng·h/mL | AUC0-tz, GeoM ([2]; human, in vivo, 100 mg): 1266 ng·h/mL | AUC0-tz, MEAN ([2]; human, in vivo, 100 mg): 1307 ng·h/mL | AUCt, MEAN ([2]; human, in vivo, 100 mg): 1540 ng·h/mL | LinPK = AUC0-8 Day 10/AUC0-inf, GeoM ([2]; human, in vivo, 100 mg): 1.172 | LinPK = AUC0-8 Day 10/AUC0-inf, MEAN ([2]; human, in vivo, 100 mg): 1.187 | effect on ALSFRS-R (patients with ALS [3]; patients also treated with riluzole, not statistically significant): may improve ALSFRS-R | effect on average ALSFRS-R score (patients with ALS [3]; patients not treated with riluzole): no effect | major elimination route [4]: eliminated with urine | AUC of radioactivity relative to parent compound ([4]; iv): about 8 times | central volume of distribution Vc ([4]; iv, 6.45 mg/kg): 1.50 ± 0.5 L/kg | first apparent elimination half-life ([4]; iv, 6.45 mg/kg): 0.33 ± 0.51 h | second apparent elimination half-life ([4]; iv, 6.45 mg/kg): 1.26 ± 0.20 h | mean AUC of radioactivity relative to parent compound ([4]; po): about 10 times | peak concentration of radioactivity relative to Compound I ([4]; po): 1.7 times | radioactivity concentration at two weeks ([4]; po): 0.014±0.004 μgE/ml | serum radioactivity at 12 h, share of peak ([4]; po): about 15% | absorption half-life ([4]; po, 6.45 mg/kg): 0.38 h | oral bioavailability ([4]; po, 6.45 mg/kg): 77% | oral bioavailability of total radioactivity ([4]; po, 6.45 mg/kg): 104% | peak concentration ([4]; po, 6.45 mg/kg): 0.94 ± 0.37 µg/mL | start of absorption after dosing ([4]; po, 6.45 mg/kg): 15 to 120 min | time of peak concentration ([4]; po, 6.45 mg/kg): 1 to 2 h | amount of metabolite No. 3 (dog liver cells): 4.9 % of the total radioactivity | amount of metabolite No. 4 (dog liver cells): 3.3 % of the total radioactivity | clearance (dog liver cells; dog, hepatocytes): 0.055 mL/h | t1/2 (dog liver cells; dog, hepatocytes): 12.6 h | safety and tolerability (patients with ALS [5]; 6 month dosing): safe and well tolerated | % Early Study Medication Discontinuation (patients with ALS [5]; [7]): 11.6% | Completed Trial on Treatment (patients with ALS [5]; [7]): 61 | Early Study Medication Discontinuation (patients with ALS [5]; [7]): 8 | treatment discontinuation: Adverse Event (patients with ALS [5]; [8]): 1 | treatment discontinuation: Death (patients with ALS [5]; [8]): 1 | treatment discontinuation: Other Reasons (patients with ALS [5]; [8]): 0 | treatment discontinuation: Reason not listed (patients with ALS [5]; [8]): 0 | treatment discontinuation: Withdrew Consent (patients with ALS [5]; [8]): 6 | # Early Study Medication Discontinuations per Month (patients with ALS [5]; over 6-months): 1.33 | rate of ALSFRS-R decline (patients with ALS [5]; patients co-administered with riluzole vs without): no apparent difference | progression of Vital Capacity (VC) (patients with ALS [5]; patients treated with riluzole in addition to Compound I vs those not treated with riluzole): appeared to progress more slowly | change in serum creatinine levels (patients with ALS [5]; screening vs 6-month): no significant change | slower decline by % VC (patients with ALS [5]; [9]): 7.6% | slower decline by ALSFRS-R (patients with ALS [5]; [9]): 21.4% | slower decline by BMI (patients with ALS [5]; [9]): 20.4% | slower decline by weight (patients with ALS [5]; [9]): 22.8% | serious adverse events or deaths [6]: no serious adverse events or deaths
